Laboratory results as given in patent US9079902B2, “Heteroaryl sodium channel inhibitors” (AMGEN INC., priority 2011, dated 2015).
Where a name gives a salt, the structure may show the parent alone.

Experiments:
Nav 1.5 = Nav 1.5 (Homo sapiens (Human), UniProt Q14524); test: Nav 1.5 in vitro assay (IonWorks Quattro population patch-clamp); format: cell-based; settings: 293 cells stably transfected with Nav 1.5; 26th pulse to -20 mV, 5 Hz
Procedure: (§1) Nav 1.7 and Nav 1.5 In Vitro Assay
(§2) 293 cells stably transfected with either Nav 1.7 or with Nav 1.5 were recorded in population patch-clamp mode with the IonWorks® Quattro automated electrophysiology system in accordance with the manufacturer's specifications (Molecular Devices, LLC, Sunnyvale, Calif.). Sodium channel currents were measured in response to a train of depolarizations that induced successively greater inactivation.
(§3) Cells were held at −110 mV for three seconds (Nav 1.7) or half a second (Nav 1.5) from a holding voltage of −15 mV, then put through a series of 26 pulses of 150 msec duration to −20 mV at a frequency of 5 Hz. Cells were then left unclamped for a period of 3 to 8 minutes while a single concentration of test compound was added. Cells were then reclamped and put through the same voltage protocol. Current at the end of the 26th pulse to −20 mV was subtracted from the peak current evoked by the 26th pulse to −20 mV to correct for leak current. Percent block was calculated for each concentration in duplicate, and IC50 curves were fitted to percent block as a function of concentration.

Nav 1.7 = Nav 1.7 (Homo sapiens (Human), UniProt Q15858); test: Nav 1.7 in vitro assay (IonWorks Quattro population patch-clamp); format: cell-based; settings: 293 cells stably transfected with Nav 1.7; 26th pulse to -20 mV, 5 Hz
Procedure: as §1, §2, §3

Chain of Nav 1.5 (Q14524 whole entry): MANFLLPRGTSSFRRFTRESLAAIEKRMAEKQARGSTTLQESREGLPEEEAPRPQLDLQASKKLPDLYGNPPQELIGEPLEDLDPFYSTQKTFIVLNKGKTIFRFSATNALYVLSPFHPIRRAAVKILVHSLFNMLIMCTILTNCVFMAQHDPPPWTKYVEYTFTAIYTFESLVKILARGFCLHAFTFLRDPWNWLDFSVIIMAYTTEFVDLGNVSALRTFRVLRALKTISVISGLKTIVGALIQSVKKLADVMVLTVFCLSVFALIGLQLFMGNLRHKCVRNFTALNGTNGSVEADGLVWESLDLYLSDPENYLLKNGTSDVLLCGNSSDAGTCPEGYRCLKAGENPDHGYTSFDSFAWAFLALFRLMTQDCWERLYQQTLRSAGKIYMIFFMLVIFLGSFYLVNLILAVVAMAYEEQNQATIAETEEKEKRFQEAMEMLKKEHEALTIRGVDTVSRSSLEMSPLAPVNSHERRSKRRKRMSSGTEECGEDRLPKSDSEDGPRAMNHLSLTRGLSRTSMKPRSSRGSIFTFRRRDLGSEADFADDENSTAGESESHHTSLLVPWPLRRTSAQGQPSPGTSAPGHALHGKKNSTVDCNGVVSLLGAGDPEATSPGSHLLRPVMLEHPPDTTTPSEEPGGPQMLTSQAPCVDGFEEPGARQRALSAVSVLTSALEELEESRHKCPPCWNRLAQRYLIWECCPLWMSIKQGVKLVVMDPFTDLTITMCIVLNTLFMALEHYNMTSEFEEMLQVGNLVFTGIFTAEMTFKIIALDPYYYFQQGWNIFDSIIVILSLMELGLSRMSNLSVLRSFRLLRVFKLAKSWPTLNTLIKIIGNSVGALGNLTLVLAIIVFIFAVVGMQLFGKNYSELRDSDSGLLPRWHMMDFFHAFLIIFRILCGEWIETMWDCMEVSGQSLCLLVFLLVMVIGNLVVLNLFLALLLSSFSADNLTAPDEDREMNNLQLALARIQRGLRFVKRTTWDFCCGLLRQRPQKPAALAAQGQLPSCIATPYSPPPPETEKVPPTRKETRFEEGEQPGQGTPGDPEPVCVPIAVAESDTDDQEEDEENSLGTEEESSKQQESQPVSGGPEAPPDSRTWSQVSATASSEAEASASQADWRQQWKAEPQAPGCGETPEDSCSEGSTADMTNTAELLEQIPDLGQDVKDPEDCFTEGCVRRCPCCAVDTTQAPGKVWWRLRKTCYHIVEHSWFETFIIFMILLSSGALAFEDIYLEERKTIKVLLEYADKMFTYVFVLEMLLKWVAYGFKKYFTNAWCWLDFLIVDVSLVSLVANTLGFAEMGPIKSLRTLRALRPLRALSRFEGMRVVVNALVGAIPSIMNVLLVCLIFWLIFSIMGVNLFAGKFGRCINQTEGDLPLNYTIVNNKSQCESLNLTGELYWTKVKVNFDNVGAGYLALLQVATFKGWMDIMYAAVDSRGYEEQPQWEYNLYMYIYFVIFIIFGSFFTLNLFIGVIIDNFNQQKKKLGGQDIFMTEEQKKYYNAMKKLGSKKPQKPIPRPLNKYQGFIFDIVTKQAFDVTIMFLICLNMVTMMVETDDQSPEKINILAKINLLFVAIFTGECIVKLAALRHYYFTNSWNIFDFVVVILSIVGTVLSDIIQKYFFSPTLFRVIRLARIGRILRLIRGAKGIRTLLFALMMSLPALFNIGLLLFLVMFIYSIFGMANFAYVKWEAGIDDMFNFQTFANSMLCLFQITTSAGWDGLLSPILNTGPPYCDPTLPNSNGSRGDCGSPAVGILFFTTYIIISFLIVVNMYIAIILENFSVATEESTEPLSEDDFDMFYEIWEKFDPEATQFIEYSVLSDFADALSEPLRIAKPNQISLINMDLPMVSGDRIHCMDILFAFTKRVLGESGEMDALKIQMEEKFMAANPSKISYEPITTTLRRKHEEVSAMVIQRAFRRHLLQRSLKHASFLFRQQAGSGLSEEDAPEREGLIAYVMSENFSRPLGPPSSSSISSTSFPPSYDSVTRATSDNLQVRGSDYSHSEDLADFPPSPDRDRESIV
Chain of Nav 1.7 (Q15858 whole entry): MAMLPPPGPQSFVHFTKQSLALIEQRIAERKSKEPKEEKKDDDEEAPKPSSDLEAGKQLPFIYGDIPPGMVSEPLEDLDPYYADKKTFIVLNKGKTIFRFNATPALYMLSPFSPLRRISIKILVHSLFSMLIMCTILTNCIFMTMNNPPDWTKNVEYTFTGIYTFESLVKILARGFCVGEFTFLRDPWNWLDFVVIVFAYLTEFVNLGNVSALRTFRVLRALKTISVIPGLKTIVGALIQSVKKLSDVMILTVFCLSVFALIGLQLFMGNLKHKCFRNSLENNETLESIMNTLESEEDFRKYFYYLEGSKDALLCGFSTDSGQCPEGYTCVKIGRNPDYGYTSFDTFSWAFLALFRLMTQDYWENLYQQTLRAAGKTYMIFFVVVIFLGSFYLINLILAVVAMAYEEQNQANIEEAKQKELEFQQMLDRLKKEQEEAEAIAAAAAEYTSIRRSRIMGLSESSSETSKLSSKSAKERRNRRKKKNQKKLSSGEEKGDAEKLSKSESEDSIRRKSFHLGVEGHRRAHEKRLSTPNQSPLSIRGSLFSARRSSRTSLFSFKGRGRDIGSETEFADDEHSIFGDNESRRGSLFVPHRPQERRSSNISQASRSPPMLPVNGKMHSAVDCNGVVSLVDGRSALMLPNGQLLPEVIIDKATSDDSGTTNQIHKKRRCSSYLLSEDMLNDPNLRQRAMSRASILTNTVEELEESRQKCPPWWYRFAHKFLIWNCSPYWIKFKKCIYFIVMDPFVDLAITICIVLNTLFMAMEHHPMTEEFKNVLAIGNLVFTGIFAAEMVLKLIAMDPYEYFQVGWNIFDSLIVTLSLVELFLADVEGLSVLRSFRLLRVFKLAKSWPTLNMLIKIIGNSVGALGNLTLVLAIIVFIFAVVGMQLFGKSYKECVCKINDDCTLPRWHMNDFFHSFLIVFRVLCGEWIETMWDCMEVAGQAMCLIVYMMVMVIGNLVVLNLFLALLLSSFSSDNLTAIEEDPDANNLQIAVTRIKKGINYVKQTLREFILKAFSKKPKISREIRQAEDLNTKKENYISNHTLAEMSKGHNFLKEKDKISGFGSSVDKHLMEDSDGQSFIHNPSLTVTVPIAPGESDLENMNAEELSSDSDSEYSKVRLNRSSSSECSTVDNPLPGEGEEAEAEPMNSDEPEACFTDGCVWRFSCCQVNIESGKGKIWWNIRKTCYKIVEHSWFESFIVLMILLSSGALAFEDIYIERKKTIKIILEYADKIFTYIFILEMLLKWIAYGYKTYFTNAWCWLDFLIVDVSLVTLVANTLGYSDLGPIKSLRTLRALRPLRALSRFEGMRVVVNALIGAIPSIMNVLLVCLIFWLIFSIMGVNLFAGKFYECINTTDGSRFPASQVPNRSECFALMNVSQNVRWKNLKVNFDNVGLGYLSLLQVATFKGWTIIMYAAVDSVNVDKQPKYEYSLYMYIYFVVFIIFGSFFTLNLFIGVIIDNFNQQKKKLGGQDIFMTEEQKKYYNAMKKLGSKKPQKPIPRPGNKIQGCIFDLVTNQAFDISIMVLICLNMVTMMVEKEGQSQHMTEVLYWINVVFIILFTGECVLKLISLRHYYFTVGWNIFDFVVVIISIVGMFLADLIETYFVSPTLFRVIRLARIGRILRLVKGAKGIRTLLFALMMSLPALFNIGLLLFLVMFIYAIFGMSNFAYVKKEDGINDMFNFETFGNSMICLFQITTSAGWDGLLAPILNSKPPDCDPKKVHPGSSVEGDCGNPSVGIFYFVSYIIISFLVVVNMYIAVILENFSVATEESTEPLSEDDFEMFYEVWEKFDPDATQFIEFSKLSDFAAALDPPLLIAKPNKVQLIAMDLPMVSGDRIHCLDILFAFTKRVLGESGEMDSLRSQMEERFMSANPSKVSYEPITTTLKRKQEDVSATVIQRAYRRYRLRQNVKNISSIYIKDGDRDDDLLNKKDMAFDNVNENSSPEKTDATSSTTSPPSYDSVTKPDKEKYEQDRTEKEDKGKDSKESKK

| IC50 (Nav 1.7) [nM] | SMILES | IC50 (Nav 1.5) [nM] |
| --- | --- | --- |
| 292 | Cn1cc(-c2cccc3c2CCNC3)c2ccc(S(=O)(=O)Nc3ncns3)cc21 [Example 53, 1-Methyl-3-(1,2,3,4-Tetrahydroisoquinolin-5-Yl)-N-(1,2,4-Thiadiazol-5-Yl)-1H-Indole-6-Sulfonamide Hydrochloride] | > 10000 |
| 2680 | Cn1nccc1-c1cc(Cl)ccc1-n1cnc2cc(S(=O)(=O)Nc3ncns3)ccc21 [Example 62, 1-(4-Chloro-2-(1-Methyl-1H-Pyrazol-5-Yl)Phenyl)-N-(1,2,4-Thiadiazol-5-Yl)-1H-Benzo[D]Imidazole-5-Sulfonamide] | > 10000 |

| SMILES | IC50 (Nav 1.7) [nM] | IC50 (Nav 1.5) [nM] |
| --- | --- | --- |
| Cn1cc(-c2cccc3c2CNCC3)c2ccc(S(=O)(=O)Nc3ncns3)cc21 [Example 54, 1-Methyl-3-(1,2,3,4-Tetrahydroisoquinolin-8-Yl)-N-(1,2,4-Thiadiazol-5-Yl)-1H-Indole-6-Sulfonamide Hydrochloride] | 1630 | > 10000 |
